The record followed here is US11753407B2, “Compounds for treating spinal muscular atrophy” (PTC Therapeutics, Inc., priority 2012, dated 2023).

For data set [1], the system named is Smn protein in SMA patient fibroblast cells (GM03813). In words: Smn protein assay in cultured cells (SMN HTRF). In kind it is cell-based, human. The conditions noted are these: SMA patient fibroblast cells, 48 hours; for EC1.5x for Smn protein expression: 7-point concentration curve, SMN HTRF, concentration producing 1.5 times Smn protein vs DMSO vehicle control; for maximum fold (Fold) increase of Smn protein: 7-point concentration data, fold relative to vehicle control. The method in brief: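 Smn protein quantified by HTRF with anti-SMN d2/kryptate pair, 665/620 nm ratio blank-corrected, in RIPA lysates of GM03813 fibroblasts after 48 h compound exposure (7 concentrations, 3.16-fold steps, triplicates). Values: concentration producing 1.5× vehicle Smn level, and maximal fold increase.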
(TR-FRET usually uses a lanthanide donor and a delayed reading to cut background.)

Data set [2] relates to SMN2 minigene mRNA (SMN2-A minigene) in HEK293H cells. In words: SMN2 minigene mRNA splicing RT-qPCR assay in cultured cells. It counts as cell-based, human. The conditions noted are these: Homo sapiens, HEK293-H; concentration increasing full length SMN2 mRNA 1.5-fold relative to vehicle-treated cells; HEK293H cells with SMN2-A minigene, 24 hours, 7-point concentration data; read-out: EC1.5x for production of full length SMN2 mRNA. The method in brief:
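EC1.5× = concentration raising full-length SMN2 minigene mRNA 1.5-fold over vehicle, from 7-point curves in duplicate. Stably transfected HEK293H cells exposed 24 h at 37 °C; lysates assayed by multiplex RT-qPCR, minigene FL signal normalized to GAPDH via modified ΔΔCt.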
In general terms: Real-time PCR tracks product formation cycle by cycle.

The structures appear in SMILES notation. A value given as a limit tells only on which side of the number the result lay.

As usually defined, the melting point is the temperature, or range, at which the solid turns liquid. `Cc1cn2cc(-c3cc(=O)n4cc(N5CCCN(C)CC5)ccc4n3)cc(Cl)c2n1` [Compound 289, 2-(8-chloro-2-methylimidazo[1,2-a]pyridin-6-yl)-7-(4-methyl-1,4-diazepan-1-yl)-4H-pyrido[1,2-a]pyrimidin-4-one] came in with a melting point of 239 to 244 °C. In data set [1], the “EC1.5x for Smn protein expression” value is “**** (an EC1.5x≤0.3 μM is indicated by four stars (****))”; the “maximum fold (Fold) increase of Smn protein” value (“maximum fold (Fold) increase” for short) is “**** (a fold increase between >1.5 and ≤1.65 is indicated by four stars (****))”. For the same compound, the EC (1.5-fold increase) in data set [2] is less than 0.1 µM.
In the case of `CC1(C)CN(c2ccc3nc(-c4ccc5c(c4)OCCO5)cc(=O)n3c2)CCN1` [Compound 36, 2-(2,3-dihydro-1,4-benzodioxin-6-yl)-7-(3,3-dimethylpiperazin-1-yl)-4H-pyrido[1,2-a]pyrimidin-4-one], the melting point lay in the range of 196 to 198 °C. Further, the “maximum fold (Fold) increase” value in data set [1] is “* (A maximum fold increase of ≤1.2 is indicated by one star (*))”. In addition, the EC (1.5-fold increase) in data set [2] was 3 to 30 µM.
Turning to `CCc1nc(C)cn2nc(-c3cc(=O)n4cc(N5CCN(C)CC5)ccc4n3)cc12` [Compound 547, 2-(4-ethyl-6-methylpyrazolo[1,5-a]pyrazin-2-yl)-7-(4-methylpiperazin-1-yl)-4H-pyrido[1,2-a]pyrimidin-4-one], the melting point was 250 to 252 °C. In data set [1], the “EC1.5x for Smn protein expression” value is recorded as “**** (an EC1.5x≤0.3 μM is indicated by four stars (****))” and the “maximum fold (Fold) increase” value is “***** (a fold increase >1.65 is indicated by five stars (*****))”. Further, the EC (1.5-fold increase) in data set [2] was less than 0.1 µM.
With `Cc1cn2nc(-c3cc(=O)n4cc(C5C[C@H](C)N[C@@H](C)C5)ccc4n3)cc2c(C)n1` (stereo partly drawn) [Compound 800, 7-[(2S,6S)-2,6-dimethylpiperidin-4-yl]-2-(4,6-dimethylpyrazolo[1,5-a]pyrazin-2-yl)-4H-pyrido[1,2-a]pyrimidin-4-one], the melting point lay within 248 to 250 °C. Moreover, in data set [1], the “EC1.5x for Smn protein expression” value is recorded as “**** (an EC1.5x≤0.3 μM is indicated by four stars (****))” and the “maximum fold (Fold) increase” value is given as “***** (a fold increase >1.65 is indicated by five stars (*****))”. In addition, the EC (1.5-fold increase) in data set [2] was less than 0.1 µM.
In turn, `CCCN1CCN(c2ccc3nc(-c4cc5c(CC)nc(C)cn5n4)cc(=O)n3c2)CC1` [Compound 618, 2-(4-ethyl-6-methylpyrazolo[1,5-a]pyrazin-2-yl)-7-(4-propylpiperazin-1-yl)-4H-pyrido[1,2-a]pyrimidin-4-one] showed a melting point of 243 to 245 °C. Further, in data set [1], the “EC1.5x for Smn protein expression” value was “**** (an EC1.5x≤0.3 μM is indicated by four stars (****))” and the “maximum fold (Fold) increase” value is recorded as “***** (a fold increase >1.65 is indicated by five stars (*****))”. Besides, the EC (1.5-fold increase) in data set [2] is less than 0.1 µM.
`Cc1cn2nc(-c3cc(=O)n4cc(C5CCNCC5)cc(C)c4n3)cc2c(C)n1` [Compound 671, 2-(4,6-dimethylpyrazolo[1,5-a]pyrazin-2-yl)-9-methyl-7-(piperidin-4-yl)-4H-pyrido[1,2-a]pyrimidin-4-one] returned a melting point of 247 to 255 °C. For the same compound, in data set [1], the “EC1.5x for Smn protein expression” value is “**** (an EC1.5x≤0.3 μM is indicated by four stars (****))” and the “maximum fold (Fold) increase” value is on record as “***** (a fold increase >1.65 is indicated by five stars (*****))”. The EC (1.5-fold increase) in data set [2] is less than 0.1 µM.
For `Cc1cn2nc(-c3cc(=O)n4cc(C5CCN(CCO)CC5)ccc4n3)cc2c(C)n1` [Compound 530, 2-(4,6-dimethylpyrazolo[1,5-a]pyrazin-2-yl)-7-[1-(2-hydroxyethyl)piperidin-4-yl]-4H-pyrido[1,2-a]pyrimidin-4-one], in that order: 228 to 230 °C, “**** (an EC1.5x≤0.3 μM is indicated by four stars (****))”, “***** (a fold increase >1.65 is indicated by five stars (*****))” and less than 0.1 µM.
For the compound `COc1ccc(-c2cc(=O)n3cc(N4CCNCC4)ccc3c2)cc1OC` [Cpd 106, 2-(3,4-dimethoxyphenyl)-7-(piperazin-1-yl)-4H-quinolizin-4-one], the melting point was 170 to 172 °C. In data set [1], the “EC1.5x for Smn protein expression” value was “** (an EC1.5× between >1 μM and ≤3 μM is indicated by two stars (**))”; the “maximum fold (Fold) increase” value was “**** (a fold increase between >1.5 and ≤1.65 is indicated by four stars (****))”. The EC (1.5-fold increase) in data set [2] was 0.3 to 1 µM.
With `CCN1CCC(c2cc(C)c3nc(-c4ccc5nn(C)cc5c4)cc(=O)n3c2)CC1` [Compound 719, 7-(1-ethylpiperidin-4-yl)-9-methyl-2-(2-methyl-2H-indazol-5-yl)-4H-pyrido[1,2-a]pyrimidin-4-one], the melting point fell in the range of 237 to 241 °C. In addition, in data set [1], the “EC1.5x for Smn protein expression” value was “**** (an EC1.5x≤0.3 μM is indicated by four stars (****))”; the “maximum fold (Fold) increase” value was “**** (a fold increase between >1.5 and ≤1.65 is indicated by four stars (****))”. The EC (1.5-fold increase) in data set [2] is less than 0.1 µM.
The compound `Cc1cn2cc(-c3cc(=O)n4nc(C5CCNCC5)ccc4n3)ccc2n1` [Compound 692, 2-(2-methylimidazo[1,2-a]pyridin-6-yl)-7-(piperidin-4-yl)-4H-pyrimido[1,2-b]pyridazin-4-one] came in with a melting point of 249 to 251 °C. In addition, in data set [1], the “EC1.5x for Smn protein expression” value is “*** (an EC1.5× between >0.3 μM and ≤1 μM is indicated by three stars (***))”; the “maximum fold (Fold) increase” value was “***** (a fold increase >1.65 is indicated by five stars (*****))”. Further, in data set [2], the EC (1.5-fold increase) is 0.1 to 0.3 µM.
Compound `COc1cccc(-c2cc(=O)n3cc(N4CCN(C)CC4)ccc3n2)c1` [Compound 23, 2-(3-methoxyphenyl)-7-(4-methylpiperazin-1-yl)-4H-pyrido[1,2-a]pyrimidin-4-one] came in with a melting point of 173 to 175 °C. For the same compound, in data set [1], the “maximum fold (Fold) increase” value is “*** (a fold increase between >1.35 and ≤1.5 is indicated by three stars (***))”. For the same compound, the EC (1.5-fold increase) in data set [2] fell in the range of 3 to 30 µM.
As for `C[C@@H]1CN(c2ccc3nc(-c4ccc5c(cnn5C)c4)cc(=O)n3c2)C[C@H](C)N1` [Compound 552, 7-[(3R,5S)-3,5-dimethylpiperazin-1-yl]-2-(1-methyl-1H-indazol-5-yl)-4H-pyrido[1,2-a]pyrimidin-4-one], the melting point lay within 240 to 242 °C. For the same compound, in data set [1], the “EC1.5x for Smn protein expression” value is “*** (an EC1.5× between >0.3 μM and ≤1 μM is indicated by three stars (***))”; the “maximum fold (Fold) increase” value was “**** (a fold increase between >1.5 and ≤1.65 is indicated by four stars (****))”. Moreover, the EC (1.5-fold increase) in data set [2] fell in the range of 0.3 to 1 µM.
`CCc1nc(C)cn2nc(-c3cc(=O)n4cc(N5CCC(C)(N)CC5)ccc4n3)cc12` [Compound 737, 7-(4-amino-4-methylpiperidin-1-yl)-2-(4-ethyl-6-methylpyrazolo[1,5-a]pyrazin-2-yl)-4H-pyrido[1,2-a]pyrimidin-4-one] yielded a melting point of 216 to 218 °C. Moreover, in data set [1], the “EC1.5x for Smn protein expression” value is “**** (an EC1.5x≤0.3 μM is indicated by four stars (****))” and the “maximum fold (Fold) increase” value is given as “***** (a fold increase >1.65 is indicated by five stars (*****))”. Besides, the EC (1.5-fold increase) in data set [2] was less than 0.1 µM.
